The results in this text go back to patent US20040029244A1, “Phospholipase d effectors for therapy and screening” (priority 2003, published 2004).

Holding throughout (format): cell-based, human
Test [1] has as its system MMP-9 secretion from HT 1080 cells. As to the kind of experiment: MMP-9 secretion and activity assay (zymogram gels of cell medium). The conditions noted are these: for MMP-9 secretion in response to various PMA concentrations at 133 mM alcohol: 133 mM alcohol 45 min before PMA, FIG. 4B; for effect on PMA-induced MMP-9 secretion at 200 mM alcohol: 200 mM alcohol 45 min before 100 nM PMA. How it is done: FIG. 4. […] Overnight serum-deprived cells were incubated in freshly added DMEM, 0.1% BSA. A, the indicated concentrations of either 2-propanol or 1-propanol were then added. After 45 min, 100 nM PMA-was added and cells were incubated for 7.5 h after which media samples (5 ? l) were analyzed for MMP-9 secretion. B, the cells were incubated with 133 mM 2-propanol or 1-propanol for 45 min. PMAa was then introduced to give the indicated concentrations. The cells were incubated for 7.5 h after which 5 ? l media samples were analyzed for MMP-9 secretion. The data shown are representative of three independent experiments. […]
MMP-9 secretion and activity assay Before assay, the cell medium was replaced with fresh DMEM, 0.1% BSA containing, unless otherwise described, 100 nM PMA. In experiments involving inhibition with BFA, it was added 30 min before induction with PMA. Medium samples were collected after 7.5 h and loaded with non-reducing sample buffer (2% SDS, 10% glycerol in 62.5 mM Tris pH 6.8) on zymogram gels. Before developing, gels were rinsed for 30 min in renaturing buffer and then 30 min in developing buffer at room temperature. Gels were incubated in fresh developing buffer for 18 h at 37° C. MMP-9 activity was indicated by the clear 92 kDa band that appeared after staining with Coomassie brilliant blue and removing excess dye by an 18 h rinse in water. Gels were dried and scanned and then the image was inverted (clear to black and black to clear).

Test [2] has as its system MMP-9 expression in HT 1080 cells. As to the kind of experiment: Cell lysis and immunoblotting with rabbit anti MMP-9. The conditions noted are these: 7.5 h. The procedure:
FIG. 6. Phophatidic acid mediates protein kinase C induction of MMP-9 expression. A, Overnight serum-deprived cells were incubated in freshly added DMEM, 0.1% BSA containing either 100 nM PMA or 80 ? g/ml DDPA. B. Overnight serum-deprived cells were incubated in freshly added DMEM, 0.1% BSA containing 0.5% of either 1-propanol or 2-propanol for control. Following 7.5 h incubation cells were lysed with RIPA buffer and 15 ? g whole cell lysate were subjected to SDS-PAGE and immunoblotting with rabbit anti MMP-9. Immunoreactive bands were visualized using the ECL reaction. The data shown are representative of three independent experiments.
Cell lysis and immunoblotting Overnight serum-deprived cells in 60 mm plates were washed with PBS and then lysed with 750 μl RIPA^− buffer (1% NP-40, 0.1% SDS, 100 mM NaF, 10 mM Na pyrophosphate, 2.5 mM Na3VO4 in PBS). RIPA^− soluble fraction was separated from the non-solube fraction by 15 min centrifugation in a bench top microcentrifuge at 14,000 rpm at 4° C. Protein samples (15 μg) were analyzed after SDS-polyacrylamide gel electrophoresis (SDS-PAGE) by immunoblotting with rabbit anti MMP-9 or anti actin diluted according to manufacturer instructions in PBS, 0.5% Tween 20 and 5% dry milk powder and with horseradish peroxidase-labeled secondary antibody. Immunoreactive bands were visualized by the enhanced chemiluminescence (ECL) reaction.
Background: In western blotting, separated proteins are transferred to a membrane and probed.

Test [3] concerns PLD in HT 1080 cells. As to the kind of experiment: In vivo PLD assay ([3H]phosphatidylbutanol formation in labeled cells). How it is done: FIG. 2. Activation of PLD in PMA-treated HT 1080 cells. The cells, at their log phase of growth, were serum deprived and labeled with […] [^3H]myristic acid. Following washing and preincubation with DMEM, 0.1% BSA, 0.3% 1-butanol for 20 min, and 100 nM PMA were added, and cells were incubated for the indicated times at 37° C. Lipids were extracted and analyzed, and the production of labelled phosphatidylbutanol ([^3H]PtdBut) was measured as described under “Materials and Methods”. The values obtained for [^3H]PtdBut were normalized by dividing the measured counts/min by counts/min in the total lipid fraction. Data are expressed as the mean±S.E. of the fold activation in three independent experiments performed in triplicates.
In vivo PLD assay Serum-deprived cells were labeled for 18 h with 1 μCi/ml [^3H]myristic acid and were washed with DMEM, 0.1% BSA. Following 20 min preincubation in DMEM, 0.1% BSA, 0.3% 1-butanol, the cells were stimulated with, unless otherwise described, 100 nM PMA for 20 min. Cells were washed with phosphate saline buffer (PBS) (2.68 mM KC1, 1.47 mM KH2PO4, 8.05 mM Na2PO4, 137 mM NaC1), 0.1% BSA, scraped with 1 ml ice cold CH3OH and transferred into glass tubes. CHC13 and 0.1 N HC1 were added to a final ratio of 1:1:1. The lipid-containing lower phase was collected, dried and dissolved in 30 μl CH3OH, CHC13 (1:1). The samples were loaded on a TLC plate which was developed in the lower phase of H2O, ethylacetate, acetic acid and iso-octane (100:110:20:50 respectively). Tritiated phosphatidylbutanol (PdtBut) was measured after scraping the band corresponding to the PtdBut standard (Avanti Polar Lipids).

Starred links: 1 amine or outer side, 2 acyl side, 3 side chain; linkers in the order of their positions; H or OH if unused. Positions of bridges follow the written chain, without caps; N, C: chain ends. Non-standard residues stand in square brackets, D forms with d. Residues, ends and D or L forms follow the SMILES beside them. Chains are numbered I, II in the order given. Actinocin(9to1) = Cc1c2oc3c(C)ccc(C(=O)[*:1])c3nc-2c(C(=O)[*:2])c(N)c1=O; NMeV = CN[C@H](C(=O)O)C(C)C; Sar = CNCC(=O)O

On to `CCCO` [1-propanol], for which the “effect on PMA-induced MMP-9 secretion at 100 mM alcohol” value in test [1] (100 mM alcohol 45 min before 100 nM PMA, 7.5 h, FIG. 4A) is “inhibited”. Further, the “MMP-9 secretion in response to various PMA concentrations at 133 mM alcohol” value in test [1] (7.5 h) is recorded as “almost totally suppressed”. For the same compound, in test [1] (7.5 h, FIG. 4A), the “effect on PMA-induced MMP-9 secretion at 200 mM alcohol” value was “almost absolute suppression”. The “MMP-9 expression in PMA-treated cells (immunoblot)” value in test [2] (0.5% alcohol pretreatment, PMA, whole cell lysate, FIG. 6) was “suppressed”.
With `CC(C)O` [2-propanol], in test [1] (7.5 h), the “MMP-9 secretion in response to various PMA concentrations at 133 mM alcohol” value is reported as “continues to be dose-dependent”. The “effect on PMA-induced MMP-9 secretion at 200 mM alcohol” value in test [1] (7.5 h, FIG. 4A) is “inhibitory”.
Take `Cc1c2oc3c(C)ccc(C(=O)N[C@@H]4C(=O)N[C@H](C(C)C)C(=O)N5CCC[C@H]5C(=O)N(C)CC(=O)N(C)[C@@H](C(C)C)C(=O)O[C@@H]4C)c3nc-2c(C(=O)N[C@@H]2C(=O)N[C@H](C(C)C)C(=O)N3CCC[C@H]3C(=O)N(C)CC(=O)N(C)[C@@H](C(C)C)C(=O)O[C@@H]2C)c(N)c1=O` [ActD, actinomycin D] (I: T[dV]P[Sar][NMeV] / II: T[dV]P[Sar][NMeV]; ester I:1-I:C, II:1-II:C; linker I:N-II:N via Actinocin(9to1)): the “effect on MMP-9 secretion induced with phosphatidic acid” value in test [1] (10 μg/ml ActD 45 min, then 80 μg/ml DDPA, 7.5 h, FIG. 5) is “fully decreased”.
`CCCCCCCCCCCCCC(=O)O[C@@H]1[C@@H](C)[C@@]2(O)[C@@H](C=C(CO)C[C@]3(O)C(=O)C(C)=C[C@@H]23)[C@@H]2C(C)(C)[C@]12OC(C)=O` [PMA, phorbol 12-myristate 13-acetate]: in test [1] (HT 1080 cells, 100 nM PMA, various times up to 7.5 h), the “MMP-9 activity accumulating in the medium of treated cells” value is recorded as “time-dependent manner”. The “lowest concentrations at which MMP-9 secretion is detected” value in test [1] (HT 1080 cells, 7.5 h, FIG. 1B) lay in the range of 0.5 to 1 nM. In addition, in test [3] (100 nM PMA, 0.3% 1-butanol, FIG. 2), the “time at which PtdBut formation (PLD activity) reaches a maximum” value came to 90 min. Further, in test [3] (HT 1080 cells, data not shown), the “concentration at which the PLD response is detectable” value was 1 nM and the “concentration at which the PLD response is maximal” value turned out to be 100 nM.
With `Cn1cc(C2=C(c3cn(CCCSC(=N)N)c4ccccc34)C(=O)NC2=O)c2ccccc21` [Ro 31-8220], the “effect on PMA-induced MMP-9 secretion” value in test [1] (5 μM inhibitor preincubated 1 h, then 100 nM PMA, 7.5 h, FIG. 1C) is reported as “inhibition of secretion”.
As to diodecanoylphosphatidic acid [DDPA], in test [1] (HT 1080 cells, various concentrations, 7.5 h, FIG. 3), the “induction of MMP-9 secretion” value is “induces MMP-9 secretion in a dose-dependent manner”.
Consider phosphatidic acid [PA], for which, in test [2] (HT 1080 cells, 80 μg/ml DDPA, FIG. 6A), the “induction of MMP-9 expression (immunoblot)” value is listed as “induces de novo MMP-9 expression”.
